ChEMBL document CHEMBL1201862, “PubChem BioAssay data set” (2004)
Calls of active or inactive are those of the source.

How the values were obtained:
Cytochrome P450 3A4 = Cytochrome P450 3A4 (Homo sapiens, UniProt P08684);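 also: CYP3A4 tested as one member of a cytochrome P450 panel screen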
[1] = ZM109 Env clade C HIV-1 fusion inhibitors, dose response, HeLa effector, CEM target cells, luciferase, cherry-pick (AID 652058); assay type: functional, cell-based
[2] = inhibitors of HIV Env-driven cell fusion, dose response, cherry-pick (AID 652057); assay type: functional, cell-based
[3] = CEM21 lymphoblast cell cytotoxicity, dose response, cytotoxicity control for viral fusion inhibitor project, CellTiter-Glo luminescence, cherry-picked (AID 652042); assay type: functional, cell-based;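 also: potency for signal decrease meaning cytotoxicity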
[4] = off-target signal loss in HeLa-CEM21 co-culture – HeLa F-luc CTL cells, cherry-picked, counter-screen for HIV-1 Env fusion inhibitor project, dose response (AID 652040); assay type: functional, cell-based;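 also: potency for signal decrease marking cytotoxic or nonspecific inhibition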
[5] = inhibitors of clade B AD8 Env fusion, dose response, cell-based, cherry-pick (AID 652062); assay type: functional;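 also: luciferase signal from cell-cell fusion driven by HIV-1 clade B AD8 Env; potency is for inhibitors of fusion seen as a drop in luminescence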
Beta-lactamase [6] = biological target: Beta-lactamase (Salmonella choleraesuis (strain SC-B67), UniProt Q5J463); test: Epi-absorbance-based counterscreen for selective VIM-2 inhibitors: dose response biochemical high throughput screening assay to identify inhibitors of TEM-1 serine-beta-lactamase.
Beta-lactamase [7] = biological target: T1, Beta-lactamase (Pseudomonas aeruginosa, UniProt Q79MP6); test: […] counterscreen for selective VIM-2 inhibitors: dose response biochemical high throughput screening assay to identify inhibitors of IMP-1 metallo-beta-lactamase.
[8] = biological target: T2, Heat shock factor protein 1 (Mus musculus, UniProt P38532); test: HSF1 potentiators in luciferase reporter cells, confirmation, cell-based, NIH3T3, luminescence, dose retest (AID 435004); assay type: functional;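 also: stress induced by proteasome inhibitor MG132 added 30 min after compound; luciferase reporter driven by HSF1 response element in NIH3T3 cells; actives raise luminescence as potentiators of the MG132 stress response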
T2 sequence (P38532 whole entry): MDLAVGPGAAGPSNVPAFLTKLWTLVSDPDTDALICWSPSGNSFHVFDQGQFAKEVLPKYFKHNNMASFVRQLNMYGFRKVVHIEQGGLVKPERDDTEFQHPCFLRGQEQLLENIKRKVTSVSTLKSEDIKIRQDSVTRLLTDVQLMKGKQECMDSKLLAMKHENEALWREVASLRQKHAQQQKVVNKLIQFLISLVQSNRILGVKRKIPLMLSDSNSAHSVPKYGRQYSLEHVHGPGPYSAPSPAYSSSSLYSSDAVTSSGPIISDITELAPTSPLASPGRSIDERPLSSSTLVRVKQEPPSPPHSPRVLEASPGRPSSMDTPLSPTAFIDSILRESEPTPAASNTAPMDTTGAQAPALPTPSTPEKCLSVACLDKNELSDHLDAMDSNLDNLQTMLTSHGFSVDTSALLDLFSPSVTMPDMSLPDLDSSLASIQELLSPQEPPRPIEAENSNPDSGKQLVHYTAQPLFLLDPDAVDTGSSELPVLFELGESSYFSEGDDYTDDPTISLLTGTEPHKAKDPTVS

Beta-lactamase [9] = biological target: T1, Beta-lactamase; test: IMP-1 metallo-beta-lactamase inhibitors, dose response, selectivity assay for VIM-2 inhibitor project, biochemical, epi-absorbance (AID 1920)
Albumin = Albumin (Bos taurus, UniProt P02769); test: Counterscreen for inhibitors of T-cell receptor (TCR)-CD3 interaction: Fluorescence-based biochemical high throughput dose response assay to identify inhibitors of T-cell receptor (TCR)-CD3 interaction using a TAMRA-labeled BSA probe.; assay type: functional
[10] = NIH/3T3 fibroblast cytotoxicity, dose response, cytotoxicity control for T. cruzi growth inhibitor project, cell-based, cherry-pick samples, set 2 (AID 651817); assay type: functional; details: NIH3T3
[11] = biological target: T3, Apoptotic protease-activating factor 1 (Homo sapiens, UniProt O14727); assay type: functional
T3 sequence (O14727 whole entry): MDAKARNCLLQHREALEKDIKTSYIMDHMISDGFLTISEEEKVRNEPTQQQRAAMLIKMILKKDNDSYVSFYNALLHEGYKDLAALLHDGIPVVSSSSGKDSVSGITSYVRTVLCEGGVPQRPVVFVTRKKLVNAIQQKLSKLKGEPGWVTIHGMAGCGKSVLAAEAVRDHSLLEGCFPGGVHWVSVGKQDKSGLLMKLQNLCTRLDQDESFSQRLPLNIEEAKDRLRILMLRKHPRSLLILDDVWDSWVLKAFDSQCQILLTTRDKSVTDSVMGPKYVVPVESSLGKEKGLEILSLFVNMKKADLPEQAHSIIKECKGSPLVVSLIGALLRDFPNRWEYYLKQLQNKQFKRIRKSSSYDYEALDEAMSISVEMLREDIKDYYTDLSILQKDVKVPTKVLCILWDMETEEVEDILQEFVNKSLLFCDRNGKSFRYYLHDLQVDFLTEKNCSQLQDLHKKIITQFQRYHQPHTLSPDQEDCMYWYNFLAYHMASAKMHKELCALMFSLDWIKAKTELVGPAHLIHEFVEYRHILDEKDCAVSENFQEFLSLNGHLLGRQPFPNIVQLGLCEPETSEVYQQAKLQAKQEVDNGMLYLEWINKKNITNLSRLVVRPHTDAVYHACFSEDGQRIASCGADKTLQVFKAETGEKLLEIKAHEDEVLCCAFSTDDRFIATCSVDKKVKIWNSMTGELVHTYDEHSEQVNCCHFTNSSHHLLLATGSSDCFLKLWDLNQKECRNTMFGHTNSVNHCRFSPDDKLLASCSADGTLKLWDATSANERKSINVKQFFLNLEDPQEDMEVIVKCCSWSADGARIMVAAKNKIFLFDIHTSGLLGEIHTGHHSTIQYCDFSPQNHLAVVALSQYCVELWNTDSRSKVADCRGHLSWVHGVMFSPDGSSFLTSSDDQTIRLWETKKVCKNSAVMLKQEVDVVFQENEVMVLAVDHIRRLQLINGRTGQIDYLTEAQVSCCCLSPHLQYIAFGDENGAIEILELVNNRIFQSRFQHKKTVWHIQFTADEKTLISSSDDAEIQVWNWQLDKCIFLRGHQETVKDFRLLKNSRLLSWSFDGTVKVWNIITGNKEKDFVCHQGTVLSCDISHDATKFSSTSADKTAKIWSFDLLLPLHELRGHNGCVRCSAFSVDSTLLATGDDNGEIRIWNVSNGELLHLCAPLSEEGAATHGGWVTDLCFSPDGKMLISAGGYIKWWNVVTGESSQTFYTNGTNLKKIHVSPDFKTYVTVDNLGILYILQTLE

[12] = biological target: T4, Sentrin-specific protease 8 (Homo sapiens, UniProt Q96LD8); assay type: functional
T4 sequence (Q96LD8 whole entry): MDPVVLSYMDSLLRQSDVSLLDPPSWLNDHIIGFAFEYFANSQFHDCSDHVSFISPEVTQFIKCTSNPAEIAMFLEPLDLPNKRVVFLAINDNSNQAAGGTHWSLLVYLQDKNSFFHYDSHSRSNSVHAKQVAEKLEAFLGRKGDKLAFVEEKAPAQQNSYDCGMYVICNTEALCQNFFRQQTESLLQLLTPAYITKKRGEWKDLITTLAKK

[13] = biological target: T5, Probable nicotinate-nucleotide adenylyltransferase (Staphylococcus aureus (strain N315), UniProt P65502); assay type: functional, Staphylococcus aureus subsp. aureus N315;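 as to IC50 Mean: confirmatory dose-response retesting of NadD inhibitor hits first found in an ultra-high-throughput screen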
[14] = biological target: T4, Sentrin-specific protease 8; assay type: functional; remark: listed apart in the source
[15] = biological target: T5, Probable nicotinate-nucleotide adenylyltransferase; assay type: functional, Staphylococcus aureus subsp. aureus N315; details: read-out: IC50_Mean
Fatty acid synthase [16] = biological target: T6, Fatty acid synthase (Homo sapiens, UniProt P49327); test: FAS thioesterase domain inhibitors, dose response, biochemical, endpoint fluorescence intensity, uHTS hits (AID 624327); assay type: functional;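 also: fluorescence from hydrolysis of an O-methyl fluorescein acyl ester substrate by the enzyme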
Fatty acid synthase [17] = biological target: T6, Fatty acid synthase; test: FAS thioesterase domain inhibitors, dose response, biochemical, kinetic fluorescence intensity (AID 624326); assay type: functional;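 also: rate of fluorescence rise from hydrolysis of a fluorogenic O-methyl fluorescein ester substrate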
[18] = Counterscreen for activators of the function of SWI/SNF related, matrix associated, actin dependent regulator of chromatin, subfamily a, member 2 (SMARCA2, BRM): Luminescence-based cell-based high throughput dose response assay to identify non-selective compounds using the VP16 reporter assay.; assay type: functional
[19] = biological target: SWI/SNF-related matrix-associated actin-dependent regulator of chromatin subfamily A member 2 (Homo sapiens, UniProt P51531); test: Luminescence-based cell-based high throughput dose response assay to identify activators of the function of SWI/SNF related, matrix associated, actin dependent regulator of chromatin, subfamily a, member 2 (SMARCA2, BRM).; assay type: functional

T1 sequence (Q79MP6 whole entry): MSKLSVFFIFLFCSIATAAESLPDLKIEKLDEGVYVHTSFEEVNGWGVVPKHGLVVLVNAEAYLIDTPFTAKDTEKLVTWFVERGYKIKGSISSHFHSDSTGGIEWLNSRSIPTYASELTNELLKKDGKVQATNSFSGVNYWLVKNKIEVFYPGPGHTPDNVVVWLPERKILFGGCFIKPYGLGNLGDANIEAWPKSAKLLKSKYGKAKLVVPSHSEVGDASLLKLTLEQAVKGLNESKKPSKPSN
Chain of Beta-lactamase (Salmonella choleraesuis (strain SC-B67), UniProt Q5J463) (Q5J463 whole entry): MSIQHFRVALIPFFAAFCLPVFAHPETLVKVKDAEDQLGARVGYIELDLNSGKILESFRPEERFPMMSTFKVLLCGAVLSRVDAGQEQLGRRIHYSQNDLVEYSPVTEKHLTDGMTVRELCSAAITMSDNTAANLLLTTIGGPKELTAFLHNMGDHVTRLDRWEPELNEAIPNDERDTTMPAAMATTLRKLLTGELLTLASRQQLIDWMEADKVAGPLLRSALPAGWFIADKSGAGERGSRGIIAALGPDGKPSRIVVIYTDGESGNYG
T6 sequence (P49327 whole entry, the tested form may be a part): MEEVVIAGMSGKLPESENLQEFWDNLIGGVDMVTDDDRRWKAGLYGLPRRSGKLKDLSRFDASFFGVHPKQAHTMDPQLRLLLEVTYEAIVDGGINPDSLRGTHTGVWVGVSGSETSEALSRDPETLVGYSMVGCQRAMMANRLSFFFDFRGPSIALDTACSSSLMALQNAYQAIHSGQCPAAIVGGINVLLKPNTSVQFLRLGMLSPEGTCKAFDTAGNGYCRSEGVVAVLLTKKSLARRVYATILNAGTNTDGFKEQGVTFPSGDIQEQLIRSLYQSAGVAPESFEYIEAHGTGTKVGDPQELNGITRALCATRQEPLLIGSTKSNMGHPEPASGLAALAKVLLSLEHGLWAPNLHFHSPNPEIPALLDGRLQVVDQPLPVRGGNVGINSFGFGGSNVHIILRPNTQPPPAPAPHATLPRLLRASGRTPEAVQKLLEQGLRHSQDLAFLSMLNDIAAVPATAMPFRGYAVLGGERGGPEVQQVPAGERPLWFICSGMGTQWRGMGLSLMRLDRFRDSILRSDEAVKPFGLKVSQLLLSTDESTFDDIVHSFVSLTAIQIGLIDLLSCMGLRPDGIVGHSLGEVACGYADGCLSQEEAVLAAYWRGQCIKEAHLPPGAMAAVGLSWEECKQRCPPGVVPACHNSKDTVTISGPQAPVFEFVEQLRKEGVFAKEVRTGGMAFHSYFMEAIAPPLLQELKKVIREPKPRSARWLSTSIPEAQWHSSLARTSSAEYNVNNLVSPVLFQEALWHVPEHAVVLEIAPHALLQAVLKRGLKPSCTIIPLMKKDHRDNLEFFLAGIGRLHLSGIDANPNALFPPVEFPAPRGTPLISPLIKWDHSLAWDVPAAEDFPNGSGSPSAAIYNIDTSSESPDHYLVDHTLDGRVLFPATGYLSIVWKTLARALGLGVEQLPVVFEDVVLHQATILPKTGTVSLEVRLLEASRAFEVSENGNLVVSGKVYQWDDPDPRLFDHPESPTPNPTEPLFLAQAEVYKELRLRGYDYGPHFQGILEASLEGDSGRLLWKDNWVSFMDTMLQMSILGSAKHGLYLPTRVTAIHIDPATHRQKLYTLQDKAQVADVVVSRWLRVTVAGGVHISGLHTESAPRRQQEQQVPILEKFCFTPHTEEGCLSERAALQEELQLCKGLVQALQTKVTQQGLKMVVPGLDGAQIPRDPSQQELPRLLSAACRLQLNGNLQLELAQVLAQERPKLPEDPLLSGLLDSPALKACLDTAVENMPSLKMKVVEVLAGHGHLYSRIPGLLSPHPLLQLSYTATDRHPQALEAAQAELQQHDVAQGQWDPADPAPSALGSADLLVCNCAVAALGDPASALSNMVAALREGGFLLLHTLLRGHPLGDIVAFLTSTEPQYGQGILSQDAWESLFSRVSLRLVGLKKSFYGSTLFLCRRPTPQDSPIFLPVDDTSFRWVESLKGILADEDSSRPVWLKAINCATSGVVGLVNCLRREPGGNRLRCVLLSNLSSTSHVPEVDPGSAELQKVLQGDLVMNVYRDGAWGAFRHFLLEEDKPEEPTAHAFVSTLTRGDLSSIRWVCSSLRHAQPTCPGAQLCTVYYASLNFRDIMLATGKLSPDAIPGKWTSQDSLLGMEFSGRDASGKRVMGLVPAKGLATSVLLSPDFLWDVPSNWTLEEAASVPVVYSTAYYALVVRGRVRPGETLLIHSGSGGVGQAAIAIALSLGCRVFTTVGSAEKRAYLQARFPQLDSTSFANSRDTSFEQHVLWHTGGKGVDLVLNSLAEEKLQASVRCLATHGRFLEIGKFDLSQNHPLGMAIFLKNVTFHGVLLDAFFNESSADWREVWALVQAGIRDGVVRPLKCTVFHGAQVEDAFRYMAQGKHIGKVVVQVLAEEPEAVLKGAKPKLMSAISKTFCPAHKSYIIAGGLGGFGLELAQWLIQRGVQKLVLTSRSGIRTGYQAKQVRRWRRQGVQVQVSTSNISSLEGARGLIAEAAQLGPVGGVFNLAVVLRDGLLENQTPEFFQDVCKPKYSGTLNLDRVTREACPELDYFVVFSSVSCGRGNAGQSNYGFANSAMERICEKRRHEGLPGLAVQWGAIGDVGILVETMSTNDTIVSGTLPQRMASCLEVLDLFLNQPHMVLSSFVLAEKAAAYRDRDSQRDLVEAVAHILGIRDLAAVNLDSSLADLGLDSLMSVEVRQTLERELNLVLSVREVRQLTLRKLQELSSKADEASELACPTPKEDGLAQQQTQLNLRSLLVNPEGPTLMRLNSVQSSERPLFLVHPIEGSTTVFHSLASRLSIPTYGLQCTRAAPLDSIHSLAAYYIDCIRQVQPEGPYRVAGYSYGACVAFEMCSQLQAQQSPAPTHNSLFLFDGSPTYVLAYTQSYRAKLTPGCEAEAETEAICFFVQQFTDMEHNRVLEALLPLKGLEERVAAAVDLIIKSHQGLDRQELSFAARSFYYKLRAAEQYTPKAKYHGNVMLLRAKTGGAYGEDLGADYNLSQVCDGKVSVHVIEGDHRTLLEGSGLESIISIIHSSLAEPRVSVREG
T5 sequence (P65502 whole entry): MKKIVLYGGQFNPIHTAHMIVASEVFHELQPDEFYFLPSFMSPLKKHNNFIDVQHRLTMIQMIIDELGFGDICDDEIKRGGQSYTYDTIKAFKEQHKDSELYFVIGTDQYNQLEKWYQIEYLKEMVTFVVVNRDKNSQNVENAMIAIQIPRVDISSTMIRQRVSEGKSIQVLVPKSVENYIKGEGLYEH
Chain of Albumin (P02769 whole entry): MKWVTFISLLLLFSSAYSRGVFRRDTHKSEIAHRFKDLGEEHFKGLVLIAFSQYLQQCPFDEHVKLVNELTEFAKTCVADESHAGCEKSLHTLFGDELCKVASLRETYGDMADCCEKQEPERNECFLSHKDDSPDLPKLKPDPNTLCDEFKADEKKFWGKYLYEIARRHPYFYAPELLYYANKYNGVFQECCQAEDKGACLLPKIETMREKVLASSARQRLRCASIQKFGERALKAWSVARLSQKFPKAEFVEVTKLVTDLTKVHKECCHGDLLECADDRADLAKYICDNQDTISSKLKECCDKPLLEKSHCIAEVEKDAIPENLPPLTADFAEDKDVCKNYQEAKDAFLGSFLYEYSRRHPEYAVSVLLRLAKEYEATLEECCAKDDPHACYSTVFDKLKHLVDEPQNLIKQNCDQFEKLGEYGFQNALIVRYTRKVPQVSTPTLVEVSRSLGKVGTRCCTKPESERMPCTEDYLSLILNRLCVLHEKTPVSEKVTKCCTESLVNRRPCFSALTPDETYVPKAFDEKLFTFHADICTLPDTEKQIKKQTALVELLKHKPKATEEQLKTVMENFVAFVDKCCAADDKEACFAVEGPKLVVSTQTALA
Chain of Cytochrome P450 3A4 (P08684 whole entry, the tested form may be a part): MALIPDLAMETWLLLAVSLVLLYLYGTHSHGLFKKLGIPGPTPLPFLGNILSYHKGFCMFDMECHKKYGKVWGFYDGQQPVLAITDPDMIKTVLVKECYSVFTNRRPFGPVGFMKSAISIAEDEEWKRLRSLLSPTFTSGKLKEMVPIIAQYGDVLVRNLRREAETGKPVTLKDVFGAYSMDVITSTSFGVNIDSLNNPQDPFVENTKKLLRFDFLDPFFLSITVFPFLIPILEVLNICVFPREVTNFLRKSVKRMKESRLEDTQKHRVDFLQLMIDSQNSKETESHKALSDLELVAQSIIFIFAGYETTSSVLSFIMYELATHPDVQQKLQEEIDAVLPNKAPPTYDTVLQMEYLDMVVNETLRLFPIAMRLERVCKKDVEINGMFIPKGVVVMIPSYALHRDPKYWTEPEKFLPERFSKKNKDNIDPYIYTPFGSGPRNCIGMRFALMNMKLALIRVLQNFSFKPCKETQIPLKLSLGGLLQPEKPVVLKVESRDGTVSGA

## O=S1(=O)CCN(c2ccccc2CC(c2c[nH]c3ccccc23)c2c[nH]c3ccccc23)CC1
Cytochrome P450 3A4
  AC50: 2.51 µM (inconclusive)
[1]
  AC50: < 0.26 µM (active)
[2]
  AC50: < 0.26 µM (active)
[3]
  AC50: 24.6 µM (active)
[4]
  AC50: 0.555 µM (active)
[5]
  AC50: 1.06 µM (active)

## CCCc1cc(=O)oc2c3c(cc(OCC(=O)N[C@@H](C)C(=O)O)c12)OC(C)(C)CC3
Beta-lactamase [6]
  IC50: > 59.6 µM (inactive)
Beta-lactamase [7]
  IC50: > 59.6 µM (inactive)
[8]
  EC50: > 260 µM (inactive)
Beta-lactamase [9]
  IC50: > 59.6 µM (inactive)

## O=C(CSc1nnc(NC(=O)c2ccccc2F)s1)NCc1ccc(F)cc1
Beta-lactamase [6]
  IC50: > 59.6 µM (inactive)
Beta-lactamase [7]
  IC50: > 59.6 µM (inactive)
Beta-lactamase [9]
  IC50: > 59.6 µM (inactive)

## COc1cc(Br)cc2cc(C(=O)N3CCN(C(=O)c4ccco4)CC3)c(=O)oc12
Albumin
  IC50: > 94.1 µM (inactive)

## Cc1ccc(S(=O)(=O)Nc2ccc3c(c2)CC(=O)N([C@@H](C)CO)C[C@@H](C)[C@@H](CN(C)S(=O)(=O)c2ccc(Cl)cc2)O3)cc1
[10]
  AC50: 35 µM (active)

## Cc1nn(-c2ccc(Cl)cc2)c(O)c1C(c1ccccc1O)c1c(C)[nH]n(-c2ccc(Cl)cc2)c1=O (stereo not given)
[11]
  IC50: 13.3 µM (active)
[12]
  IC50: 32.9 µM (active)
[13]
  IC50: 6.68 µM (active)
[14]
  IC50: 8.38 µM (active)
[15]
  IC50: 21.1 µM (active)

## NC(CCc1ccccc1)c1csc(Nc2ccccn2)n1 (stereo not given)
[1]
  AC50: 7.52 µM (active)
[2]
  AC50: 6.61 µM (active)
[3]
  AC50: 38.1 µM (active)
[4]
  AC50: 3.22 µM (active)
[5]
  AC50: 22.6 µM (active)

## C[C@H](CO)N1C[C@H](C)[C@@H](CN(C)Cc2ccc(Cl)c(Cl)c2)Oc2ccc(NS(=O)(=O)c3ccc(F)cc3)cc2CC1=O
[10]
  AC50: 10.6 µM (active)

## COc1ccc(/C=N\NC(=O)CNC(=O)C(c2ccccc2)c2ccccc2)cc1[N+](=O)[O-]
Fatty acid synthase [16]
  IC50: 16.6 µM (active)
Fatty acid synthase [17]
  IC50: 12.3 µM (active)

## CCCCCCN[C@H]1CCC2C3CC=C4C[C@@H](O)CC[C@]4(C)C3CC[C@@]21C (stereo not given in full)
[18]
  EC50: > 91.2 µM (inactive)
[19]
  EC50: > 91.2 µM (inactive)
